Assays:
Details in all cases: Compound concentration 1000.0 nM
[1] = biological target: T1, Tyrosine-protein kinase ZAP-70 (Homo sapiens) (UniProt P43403)
T1 sequence (whole entry): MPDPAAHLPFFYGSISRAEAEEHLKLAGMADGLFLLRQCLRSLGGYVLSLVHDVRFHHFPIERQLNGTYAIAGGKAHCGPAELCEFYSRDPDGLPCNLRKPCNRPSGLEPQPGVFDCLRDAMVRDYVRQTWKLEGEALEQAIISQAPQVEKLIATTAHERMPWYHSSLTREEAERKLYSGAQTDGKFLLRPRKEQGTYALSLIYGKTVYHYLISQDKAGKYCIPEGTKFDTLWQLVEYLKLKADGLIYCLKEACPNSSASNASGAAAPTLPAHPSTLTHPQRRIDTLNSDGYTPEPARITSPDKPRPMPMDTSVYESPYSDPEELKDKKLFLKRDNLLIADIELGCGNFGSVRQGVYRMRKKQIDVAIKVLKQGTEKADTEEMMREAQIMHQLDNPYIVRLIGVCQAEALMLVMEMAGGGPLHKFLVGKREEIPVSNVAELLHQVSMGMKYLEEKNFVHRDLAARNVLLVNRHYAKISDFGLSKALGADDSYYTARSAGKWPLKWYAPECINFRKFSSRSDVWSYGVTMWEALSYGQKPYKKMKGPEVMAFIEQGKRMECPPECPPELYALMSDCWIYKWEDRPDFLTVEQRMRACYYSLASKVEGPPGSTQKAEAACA

[2] = biological target: T2, Myosin light chain kinase (Homo sapiens) (UniProt Q32MK0)
T2 sequence (whole entry): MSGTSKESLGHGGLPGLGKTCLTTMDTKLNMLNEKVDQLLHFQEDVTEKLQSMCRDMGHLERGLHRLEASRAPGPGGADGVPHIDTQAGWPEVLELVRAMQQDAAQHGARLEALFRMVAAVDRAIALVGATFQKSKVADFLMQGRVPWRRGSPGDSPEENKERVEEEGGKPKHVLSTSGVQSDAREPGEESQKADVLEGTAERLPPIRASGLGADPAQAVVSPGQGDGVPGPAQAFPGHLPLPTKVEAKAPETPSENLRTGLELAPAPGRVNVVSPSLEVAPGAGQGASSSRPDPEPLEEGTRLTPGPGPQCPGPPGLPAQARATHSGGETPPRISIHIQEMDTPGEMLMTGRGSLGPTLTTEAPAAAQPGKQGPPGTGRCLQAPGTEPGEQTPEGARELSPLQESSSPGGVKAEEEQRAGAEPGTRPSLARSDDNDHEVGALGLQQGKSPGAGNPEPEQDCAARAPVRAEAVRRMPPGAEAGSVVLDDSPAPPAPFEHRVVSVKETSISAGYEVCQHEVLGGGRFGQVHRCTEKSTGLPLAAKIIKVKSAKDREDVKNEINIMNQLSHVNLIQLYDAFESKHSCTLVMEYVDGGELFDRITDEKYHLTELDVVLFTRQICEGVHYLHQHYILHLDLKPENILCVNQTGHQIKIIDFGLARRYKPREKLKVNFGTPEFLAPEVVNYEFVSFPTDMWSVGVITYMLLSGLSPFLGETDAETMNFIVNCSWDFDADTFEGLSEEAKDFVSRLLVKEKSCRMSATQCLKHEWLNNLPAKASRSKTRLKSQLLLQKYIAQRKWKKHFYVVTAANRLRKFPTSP

[3] = biological target: Mitogen-activated protein kinase kinase kinase 13 (Homo sapiens) (UniProt O43283)
[4] = biological target: Serine/threonine-protein kinase WNK4 (Homo sapiens) (UniProt Q96J92)
Chain of Serine/threonine-protein kinase WNK4 (Homo sapiens) (Q96J92 whole entry, the tested form may be a part): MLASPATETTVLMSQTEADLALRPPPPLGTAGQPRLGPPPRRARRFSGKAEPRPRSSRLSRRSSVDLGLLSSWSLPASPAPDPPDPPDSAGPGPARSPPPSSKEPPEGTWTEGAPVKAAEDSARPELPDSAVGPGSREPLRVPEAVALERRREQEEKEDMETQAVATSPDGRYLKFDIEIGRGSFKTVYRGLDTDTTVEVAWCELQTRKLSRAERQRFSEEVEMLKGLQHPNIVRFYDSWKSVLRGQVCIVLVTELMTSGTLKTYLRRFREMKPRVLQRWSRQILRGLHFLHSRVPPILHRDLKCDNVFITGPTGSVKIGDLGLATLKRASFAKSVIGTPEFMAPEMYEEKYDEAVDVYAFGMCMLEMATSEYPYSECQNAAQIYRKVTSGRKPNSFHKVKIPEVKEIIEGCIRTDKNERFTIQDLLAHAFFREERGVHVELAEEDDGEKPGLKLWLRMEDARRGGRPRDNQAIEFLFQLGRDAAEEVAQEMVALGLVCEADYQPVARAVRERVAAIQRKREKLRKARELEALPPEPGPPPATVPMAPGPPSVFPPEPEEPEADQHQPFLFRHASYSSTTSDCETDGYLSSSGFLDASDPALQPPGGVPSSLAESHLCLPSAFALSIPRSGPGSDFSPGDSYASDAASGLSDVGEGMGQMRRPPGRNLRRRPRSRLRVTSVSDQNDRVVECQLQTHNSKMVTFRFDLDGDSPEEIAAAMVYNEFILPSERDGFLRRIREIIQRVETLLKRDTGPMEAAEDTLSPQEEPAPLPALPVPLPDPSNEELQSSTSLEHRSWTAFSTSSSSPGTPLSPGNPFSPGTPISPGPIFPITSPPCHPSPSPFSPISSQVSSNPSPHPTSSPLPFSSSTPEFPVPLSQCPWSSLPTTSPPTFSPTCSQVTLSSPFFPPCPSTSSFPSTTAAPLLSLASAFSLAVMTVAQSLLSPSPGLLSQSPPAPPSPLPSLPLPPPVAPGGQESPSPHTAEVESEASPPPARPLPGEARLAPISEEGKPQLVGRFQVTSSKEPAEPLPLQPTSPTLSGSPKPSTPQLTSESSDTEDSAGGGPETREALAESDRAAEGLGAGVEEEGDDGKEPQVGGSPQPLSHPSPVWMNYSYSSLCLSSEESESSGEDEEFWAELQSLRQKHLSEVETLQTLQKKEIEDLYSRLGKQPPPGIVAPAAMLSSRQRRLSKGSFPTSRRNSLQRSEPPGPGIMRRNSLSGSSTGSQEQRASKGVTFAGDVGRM

[5] = biological target: LIM domain kinase 1 (Homo sapiens) (UniProt P53667)
Chain of LIM domain kinase 1 (Homo sapiens) (P53667 whole entry, looked up, the tested form may be a part): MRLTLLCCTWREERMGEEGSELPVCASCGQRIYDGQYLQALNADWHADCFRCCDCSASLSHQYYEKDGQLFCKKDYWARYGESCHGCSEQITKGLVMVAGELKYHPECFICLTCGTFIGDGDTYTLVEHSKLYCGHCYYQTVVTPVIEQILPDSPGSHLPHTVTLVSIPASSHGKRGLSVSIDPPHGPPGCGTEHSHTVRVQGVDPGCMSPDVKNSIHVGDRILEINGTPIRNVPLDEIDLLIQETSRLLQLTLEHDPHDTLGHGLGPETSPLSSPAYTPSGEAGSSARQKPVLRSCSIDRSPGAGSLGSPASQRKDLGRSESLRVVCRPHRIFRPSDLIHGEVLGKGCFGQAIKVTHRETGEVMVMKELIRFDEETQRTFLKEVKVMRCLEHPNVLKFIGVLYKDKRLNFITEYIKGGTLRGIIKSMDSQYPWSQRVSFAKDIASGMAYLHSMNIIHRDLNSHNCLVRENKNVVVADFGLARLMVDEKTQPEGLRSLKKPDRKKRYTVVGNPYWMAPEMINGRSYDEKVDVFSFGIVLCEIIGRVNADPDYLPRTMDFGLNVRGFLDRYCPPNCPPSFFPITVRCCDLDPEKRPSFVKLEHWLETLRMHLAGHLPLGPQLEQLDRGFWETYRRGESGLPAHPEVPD

[6] = biological target: Tyrosine-protein kinase Fyn (Homo sapiens) (UniProt P06241)
Chain of Tyrosine-protein kinase Fyn (Homo sapiens) (P06241 2-537 limits assumed): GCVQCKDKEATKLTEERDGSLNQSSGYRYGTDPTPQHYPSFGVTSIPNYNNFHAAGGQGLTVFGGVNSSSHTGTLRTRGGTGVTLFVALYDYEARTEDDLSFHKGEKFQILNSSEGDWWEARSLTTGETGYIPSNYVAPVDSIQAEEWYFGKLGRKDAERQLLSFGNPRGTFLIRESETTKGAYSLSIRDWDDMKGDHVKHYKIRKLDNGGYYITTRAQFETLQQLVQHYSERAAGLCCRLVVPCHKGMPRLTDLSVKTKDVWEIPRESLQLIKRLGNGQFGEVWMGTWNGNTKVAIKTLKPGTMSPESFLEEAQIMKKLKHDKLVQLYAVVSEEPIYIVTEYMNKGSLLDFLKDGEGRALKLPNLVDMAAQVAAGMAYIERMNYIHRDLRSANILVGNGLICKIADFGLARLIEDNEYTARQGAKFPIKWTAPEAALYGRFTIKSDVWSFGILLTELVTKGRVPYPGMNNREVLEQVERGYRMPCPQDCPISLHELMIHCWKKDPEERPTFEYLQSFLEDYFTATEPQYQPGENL

[7] = biological target: Mitogen-activated protein kinase kinase kinase kinase 1 (Homo sapiens) (UniProt Q92918)
Chain of Mitogen-activated protein kinase kinase kinase kinase 1 (Homo sapiens) (Q92918 whole entry, looked up): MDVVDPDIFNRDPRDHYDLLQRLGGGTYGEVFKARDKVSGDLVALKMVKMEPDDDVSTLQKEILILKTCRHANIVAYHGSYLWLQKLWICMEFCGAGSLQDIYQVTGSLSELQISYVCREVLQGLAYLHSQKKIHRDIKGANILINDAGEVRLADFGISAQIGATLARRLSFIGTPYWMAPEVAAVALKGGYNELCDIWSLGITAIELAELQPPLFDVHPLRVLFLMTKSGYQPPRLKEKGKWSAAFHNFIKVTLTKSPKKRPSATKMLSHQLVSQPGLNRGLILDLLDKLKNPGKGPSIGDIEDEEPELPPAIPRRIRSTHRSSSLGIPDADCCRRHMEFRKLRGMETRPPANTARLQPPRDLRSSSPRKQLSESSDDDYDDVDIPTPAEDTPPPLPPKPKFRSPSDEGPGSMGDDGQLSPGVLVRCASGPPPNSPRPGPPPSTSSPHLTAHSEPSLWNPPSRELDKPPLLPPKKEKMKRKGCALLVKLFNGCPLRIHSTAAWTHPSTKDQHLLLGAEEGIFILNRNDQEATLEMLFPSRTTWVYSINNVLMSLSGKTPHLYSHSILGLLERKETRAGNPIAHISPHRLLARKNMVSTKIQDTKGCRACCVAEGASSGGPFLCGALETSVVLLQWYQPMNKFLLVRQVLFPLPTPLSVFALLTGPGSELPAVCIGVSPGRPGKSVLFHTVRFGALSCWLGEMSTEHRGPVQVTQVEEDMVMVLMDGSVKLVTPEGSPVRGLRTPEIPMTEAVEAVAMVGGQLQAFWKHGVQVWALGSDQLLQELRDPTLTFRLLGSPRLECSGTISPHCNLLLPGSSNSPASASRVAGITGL

[8] = biological target: T3, Ephrin type-A receptor 3 (Homo sapiens) (UniProt P29320)
T3 sequence (whole entry): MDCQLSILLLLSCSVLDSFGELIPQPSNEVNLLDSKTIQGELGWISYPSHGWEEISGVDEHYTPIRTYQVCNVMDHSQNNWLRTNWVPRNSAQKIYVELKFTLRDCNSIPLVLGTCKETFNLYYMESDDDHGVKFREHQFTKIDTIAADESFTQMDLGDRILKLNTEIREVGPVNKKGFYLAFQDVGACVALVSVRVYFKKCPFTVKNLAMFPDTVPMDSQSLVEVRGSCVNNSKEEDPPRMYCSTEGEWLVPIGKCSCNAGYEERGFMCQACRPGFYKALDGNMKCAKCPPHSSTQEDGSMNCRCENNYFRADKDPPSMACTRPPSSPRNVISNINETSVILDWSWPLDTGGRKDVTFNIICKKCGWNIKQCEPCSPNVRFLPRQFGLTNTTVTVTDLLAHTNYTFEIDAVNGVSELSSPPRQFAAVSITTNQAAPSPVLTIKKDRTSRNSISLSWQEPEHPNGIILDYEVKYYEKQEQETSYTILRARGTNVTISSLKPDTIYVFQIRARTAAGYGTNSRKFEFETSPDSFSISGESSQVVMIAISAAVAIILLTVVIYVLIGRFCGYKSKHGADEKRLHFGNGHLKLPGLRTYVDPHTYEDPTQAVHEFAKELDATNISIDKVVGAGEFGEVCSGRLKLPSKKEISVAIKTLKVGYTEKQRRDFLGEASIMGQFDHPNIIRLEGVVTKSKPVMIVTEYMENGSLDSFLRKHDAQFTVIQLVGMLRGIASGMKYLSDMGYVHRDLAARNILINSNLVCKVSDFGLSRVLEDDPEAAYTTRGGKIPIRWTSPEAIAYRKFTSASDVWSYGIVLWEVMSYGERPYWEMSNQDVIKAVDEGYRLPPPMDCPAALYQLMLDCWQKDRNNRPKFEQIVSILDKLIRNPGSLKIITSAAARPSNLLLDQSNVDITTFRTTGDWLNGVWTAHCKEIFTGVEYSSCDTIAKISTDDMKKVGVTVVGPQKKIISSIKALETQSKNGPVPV

[9] = biological target: Serine/threonine-protein kinase 36 (Homo sapiens) (UniProt Q9NRP7)
Chain of Serine/threonine-protein kinase 36 (Homo sapiens) (Q9NRP7 whole entry): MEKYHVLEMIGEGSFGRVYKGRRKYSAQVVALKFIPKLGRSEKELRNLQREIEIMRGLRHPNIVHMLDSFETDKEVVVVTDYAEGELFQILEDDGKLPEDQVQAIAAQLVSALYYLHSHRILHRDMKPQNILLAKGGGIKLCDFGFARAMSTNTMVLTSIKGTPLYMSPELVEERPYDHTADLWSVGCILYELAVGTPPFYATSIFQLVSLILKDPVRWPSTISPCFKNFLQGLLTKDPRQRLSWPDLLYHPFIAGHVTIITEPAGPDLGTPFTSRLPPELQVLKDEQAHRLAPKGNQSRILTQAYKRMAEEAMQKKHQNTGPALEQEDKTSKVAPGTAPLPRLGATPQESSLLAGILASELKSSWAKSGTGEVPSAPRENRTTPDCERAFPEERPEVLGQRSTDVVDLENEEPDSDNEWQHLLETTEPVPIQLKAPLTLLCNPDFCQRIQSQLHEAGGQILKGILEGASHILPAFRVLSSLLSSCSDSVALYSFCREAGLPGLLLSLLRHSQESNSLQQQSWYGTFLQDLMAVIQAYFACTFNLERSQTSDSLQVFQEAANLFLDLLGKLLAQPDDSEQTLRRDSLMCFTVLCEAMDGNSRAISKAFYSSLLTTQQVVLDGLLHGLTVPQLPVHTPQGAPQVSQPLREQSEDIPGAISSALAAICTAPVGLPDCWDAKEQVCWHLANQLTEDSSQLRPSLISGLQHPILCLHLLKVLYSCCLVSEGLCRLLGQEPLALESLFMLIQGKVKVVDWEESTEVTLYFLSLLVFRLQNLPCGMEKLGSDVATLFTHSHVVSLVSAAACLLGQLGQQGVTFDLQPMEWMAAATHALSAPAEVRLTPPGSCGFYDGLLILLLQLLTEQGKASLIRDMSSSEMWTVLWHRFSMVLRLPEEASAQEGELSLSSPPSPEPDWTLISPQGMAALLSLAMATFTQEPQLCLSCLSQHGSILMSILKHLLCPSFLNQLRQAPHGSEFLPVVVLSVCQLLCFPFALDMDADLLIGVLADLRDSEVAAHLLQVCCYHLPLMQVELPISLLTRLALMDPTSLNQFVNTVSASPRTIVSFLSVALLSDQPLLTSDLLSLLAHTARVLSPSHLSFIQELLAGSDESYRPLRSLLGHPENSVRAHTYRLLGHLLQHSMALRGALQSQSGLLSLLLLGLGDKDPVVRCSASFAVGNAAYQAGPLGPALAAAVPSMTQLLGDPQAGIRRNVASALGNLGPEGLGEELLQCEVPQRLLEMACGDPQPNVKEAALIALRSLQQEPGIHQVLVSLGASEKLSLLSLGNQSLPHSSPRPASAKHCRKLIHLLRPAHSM

Measured: residual activity

CCc1ccccc1C(=O)Nc1n[nH]c2c(C)c(F)c(C3C(C#N)=C(C)N(C)C(C)=C3C#N)cc12 [BAY-3827]
inactive: [1] 100% | [2] 100% | [3] 100% | [4] 94% | [5] 100% | [6] 100% | [7] 73% | [8] 100% | [9] 100%

CC1=C(C#N)C(c2ccc3c(c2)c(NC(=O)c2ccccc2C)nn3C)C(C#N)=C(C)N1 [BAY-974]
inactive: [1] 90% | [2] 86% | [3] 99% | [4] 95% | [5] 94% | [6] 100% | [7] 81% | [8] 99% | [9] 87%

Source: ChEMBL document CHEMBL4507319 (2021)
